Values joined by “and” are separate entries in the source; they are usually repeats but may differ in a detail not shown here. Identical values can stand only once.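 Step 1: Grow cells in 96-well plates. Step 2: Expose to compound for 48 hours at 5 concentrations. Step 3: Interpolate endpoints linearly; if unreached, use highest concentration. GI50 = concentration required for 50% inhibition of growth. TGI: concentration producing complete growth inhibition.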
Key:
Assay in all cases: NCI anticancer screen, dose series, 48 h
SR leukemia = tested on: SR leukemia
SF-295 CNS = tested on: SF-295 CNS
EKVX NSCLC = tested on: EKVX NSCLC
OVCAR-5 ovarian = tested on: OVCAR-5 ovarian
HL-60(TB) leukemia = tested on: HL-60(TB) leukemia
SN12C renal = tested on: SN12C renal
LOX IMVI melanoma = tested on: LOX IMVI melanoma
IGROV1 ovarian = tested on: IGROV1 ovarian
NCI-H522 lung = tested on: NCI-H522 lung
OVCAR-3 ovarian = tested on: OVCAR-3 ovarian

SMILES	TGI (SR leukemia)	TGI (SF-295 CNS)	TGI (EKVX NSCLC)	TGI (OVCAR-5 ovarian)	TGI (HL-60(TB) leukemia)	TGI (SN12C renal)	TGI (LOX IMVI melanoma)	TGI (IGROV1 ovarian)	TGI (NCI-H522 lung)	TGI (OVCAR-3 ovarian)	GI50 (SR leukemia)	GI50 (SF-295 CNS)	GI50 (EKVX NSCLC)	GI50 (OVCAR-5 ovarian)	GI50 (HL-60(TB) leukemia)	GI50 (SN12C renal)	GI50 (LOX IMVI melanoma)	GI50 (IGROV1 ovarian)	GI50 (NCI-H522 lung)	GI50 (OVCAR-3 ovarian)
O=C(N/C(=C/c1cccc([N+](=O)[O-])c1)c1nc2ccc(Cl)cc2[nH]1)c1ccccc1	41.3 µM	> 100 µM	25.3 µM	78.6 µM	20.2 µM	87.4 µM	58.3 µM	27 µM	39.1 µM	76.6 µM	–	–	–	–	–	–	–	–	–	–
C/C(O)=C(\N=O)C(=O)NCc1ccccc1	> 100 µM	> 100 µM	> 100 µM	> 100 µM	> 100 µM	> 100 µM	36.6 µM	> 100 µM	> 100 µM	> 100 µM	–	–	–	–	–	–	–	–	–	–
N#C/C(=C\c1ccccc1)C(NO)Nc1ccccc1 (stereo not drawn)	> 100 µM	> 100 µM	> 100 µM	> 100 µM	> 100 µM	> 100 µM	–	> 100 µM	> 100 µM	> 100 µM	–	–	–	–	–	–	–	–	–	–
CC1=C(C(=O)Nc2ccccc2)C(c2cc(Cl)cc(Cl)c2)C(C(=O)Nc2ccccc2)=C(C)N1	12.6 µM	28.8 µM	41.3 µM	39 µM	6.52 µM	25.3 µM	24.6 µM	41.9 µM	13.3 µM	22.1 µM	–	–	–	–	–	–	–	–	–	–
CCC[CH2][Sn]([CH2]CCC)([O]C(=O)c1cccc(F)c1F)[O]C(=O)c1cccc(F)c1F	3.49 µM	2.85 µM	2.71 µM	3.28 µM	2.4 µM	2.44 µM	1.74 µM	2.76 µM	0.277 µM	2.68 µM	0.371 µM	1.52 µM	1.41 µM	1.88 µM	0.42 µM	1.19 µM	0.519 µM	1.4 µM	0.133 µM	1.37 µM
C=Cc1c(C)c2cc3[nH]c(cc4nc(cc5nc(cc1[nH]2)C(C)=C5CCC(=O)N(CC)CC)C(CCC(=O)N(CC)CC)=C4C)c(C)c3C=C	> 100 µM	> 100 µM	> 100 µM	> 100 µM	> 100 µM	> 100 µM	> 100 µM	> 100 µM	> 100 µM	> 100 µM	–	–	–	–	–	–	–	–	–	–
COC(=O)CC(C(C(C)=O)C(=O)OCc1ccccc1)N1C(=O)OC(c2ccccc2)C1c1ccccc1 (stereo not drawn)	> 100 µM	75.4 µM and > 100 µM	> 100 µM	> 100 µM	> 100 µM	> 100 µM	> 100 µM	> 100 µM	65.8 µM and > 100 µM	75.3 µM and > 100 µM	–	–	–	> 100 µM and 34.3 µM	–	–	–	–	–	–
CCOC(=O)C#Cc1c(C(=O)OCC)nnn1[C@@H]1O[C@H](CO)[C@H]2OC3(CCCCC3)O[C@H]21	4.64 µM	45.3 µM	30.1 µM	22.6 µM	5.88 µM	9.37 µM	2.83 µM	36.7 µM	4.09 µM	3.21 µM	1.63 µM	20.9 µM	15.6 µM	8.09 µM	1.87 µM	3.11 µM	1.31 µM	15.5 µM	1.96 µM	1.7 µM
COc1cc(NC(C)CCCNC(C)C)c2ncccc2c1OC (stereo not drawn)	> 100 µM	> 100 µM	> 100 µM	> 100 µM	72.4 µM	> 100 µM	> 100 µM	44.3 µM	–	51 µM	70.8 µM	> 100 µM	36.4 µM	> 100 µM	14.2 µM	> 100 µM	> 100 µM	13.4 µM	–	6.47 µM
